Experimental data as given in patent publication US7067521B2, “1-[alkyl], 1-[(heteroaryl)alkyl] and 1-[(aryl)alkyl]-7pyridinyl-imidazo[1,2-alpha]pyrimidin-5(1H)-one derivatives” (sanofi-aventis, priority 2000, dated 2006).
Structures can show the parent of a compound that is named as a salt.

Compound | melting point [°C]
O=c1cc(-c2ccncc2)nc2n(CCCCc3ccccc3)ccn12 (as salt: hydrochloride) [Compound 14, 1-[4-(phenyl)butyl]-7-pyridin-4-ylimidazo[1,2-a]pyrimidin-5(1H)-one] | 206 to 208
O=c1cc(-c2cccnc2)nc2n(CCCc3ccccc3)ccn12 (as salt: hydrochloride) [Compound 15, 1-[3-(phenyl)propyl]-7-pyridin-3-ylimidazo[1,2-a]pyrimidin-5(1H)-one] | 184 to 185
O=C(CCn1ccn2c(=O)cc(-c3ccncc3)nc12)c1ccccc1 (as salt: hydrochloride) [Compound 23, 1-(3-phenyl-3-oxo-propyl)-7-pyridin-4-ylimidazo[1,2-a]pyrimidin-5(1H)-one] | 208 to 211
O=c1cc(-c2ccncc2)nc2n(CC[C@H](O)C(F)(F)F)ccn12 [Compound 17, (S)-1-(4,4,4-trifluoro-3-hydroxybutyl)-7-pyridin-4-ylimidazo[1,2-a]pyrimidin-5(1H)-one] | 220 to 222
O=c1cc(-c2ccncc2)nc2n(CC=CC(F)(F)F)ccn12 [Compound 18, 1-(4,4,4-trifluorobut-2-enyl)-7-pyridin-4-ylimidazo[1,2-a]pyrimidin-5(1H)-one] | 187 to 188
O=c1cc(-c2ccncc2)nc2n(C=CCC(F)(F)F)ccn12 [Compound 20, 1-(4,4,4-trifluorobut-1-enyl)-7-pyridin-4-ylimidazo[1,2-a]pyrimidin-5(1H)-one] | 221 to 222
